We go through two compounds from article PMC5125089 (Lung cancer (Amsterdam, Netherlands), 2015).

Data set [1] relates to histone H3 acetylation. Kind of data set: Histone H3 acetylation status in PBMCs. It counts as in vivo, patients. Particulars: for normalized H3 acetylation values, mean increase: P < 0.01.
Data set [2] deals with histone H4 acetylation. The data set can be described thus: Histone H4 acetylation status in PBMCs. Particulars: for normalized H4 acetylation values, mean increase: P < 0.01. The class given is in vivo, patients.
The test system of data set [3] is EGFR pathway components. The data set can be described thus: EGFR pathway components in skin biopsies. The class given is in vivo, patients. Particulars: romidepsin monotherapy.
In data set [4] the test system is NSCLC cell lines. Particulars: cited from earlier work.
For data set [5], the system named is lung cancer. The following applies: romidepsin monotherapy, previously treated lung cancer; cited from earlier work.
The conditions of data set [6]: phase 1 monotherapy trial; cited from earlier work.
The mark [7] stands for this setting: both 8 mg/m^2 and 10 mg/m^2 dose levels, P < 0.001.

Converted amounts (≈) assume the structure as drawn.

Turning to `C#Cc1cccc(Nc2ncnc3cc(OCCOC)c(OCCOC)cc23)c1` [erlotinib], for the setting “human, in vivo”, the “Acneiform Rash, Possible Relationship to Erlotinib” value is recorded as “Y (7/7)”; the “Acute kidney injury, Possible Relationship to Erlotinib” value was “Y (1/1)”; the “Anorexia, Possible Relationship to Erlotinib” value is recorded as “Y (9/9)”; the “Diarrhea, Possible Relationship to Erlotinib” value is recorded as “Y (9/11)”. Also, under “human, in vivo”, the “Dry Skin, Possible Relationship to Erlotinib” value was “Y (2/2)”; the “Fatigue, Possible Relationship to Erlotinib” value is listed as “Y (9/14)”; the “Mouth Blister, Possible Relationship to Erlotinib” value is on record as “Y (4/4)”; the “Nausea, Possible Relationship to Erlotinib” value is reported as “Y (4/14)”. Where the note is “human, in vivo”, the “Vomiting, Possible Relationship to Erlotinib” value is recorded as “Y (5/14)”; the “Weight Loss, Possible Relationship to Erlotinib” value is “Y (2/3)”; the “↑ Glucose, Possible Relationship to Erlotinib” value is “Y (1/3)”; the “↓ Hgb/Anemia, Possible Relationship to Erlotinib” value is on record as “Y (2/5)”. Moreover, where the note is “in vivo”, the “Dyspepsia, Possible Relationship to Erlotinib” value is reported as “N”; the “Sinus tachycardia, Possible Relationship to Erlotinib” value is reported as “N”; the “↓ Potassium, Possible Relationship to Erlotinib” value is on record as “N”.

`C/C=C1\NC(=O)[C@H]2CSSCC/C=C/[C@H](CC(=O)N[C@H](C(C)C)C(=O)N2)OC(=O)[C@H](C(C)C)NC1=O` [romidepsin]: the “normalized H3 acetylation values, mean increase” value turned out to be 2.10 ± 0.71 in data set [1] (8 mg/m^2 cohort) and 2.18 ± 1.09 in data set [1] (10 mg/m^2 cohort). Moreover, the “effect on H3 histone acetylation” value in data set [1] (setting [7]) is “concomitant increase”. Besides, the “normalized H4 acetylation values, mean increase” value in data set [2] (8 mg/m^2 cohort) is listed as 3.20 ± 2.40; in data set [2] (10 mg/m^2 cohort), 2.26 ± 0.47. The “effect on H4 histone acetylation” value in data set [2] (setting [7]) was “concomitant increase”. The “effect on expression of EGFR, MAPK, or phospho-MAPK” value in data set [3] is given as “no discernible effect”. Besides, the “effect on expression of phosphorylated EGFR” value in data set [3] (day 3 pre-erlotinib, P = 0.09) was “trend toward decreased expression”. Also, the “maximum tolerated dose of romidepsin” value (in combination with erlotinib 150 mg orally daily, Days 1, 8, and 15 every 28 days, IV, with multi-drug antiemetic prophylaxis) is recorded as 8 mg/m^2. Moreover, in data set [4], the “IC50 against NSCLC cell lines in vitro” value is on record as 2.25 ng/mL (≈ 4.16 nM). Further, the “patients who achieved stable disease” value in data set [5] is on record as 9 of 18. Besides, the dose-limiting toxicities entry in data set [6] is “grade 3 thrombocytopenia and fatigue”.
